Measured values as given in patent US20230027026A1, “FUSED PYRIMIDINE COMPOUNDS, COMPOSITIONS AND MEDICINAL APPLICATIONS THEREOF” (JUBILANT BIOSYS LIMITED, priority 2019, published 2023).

What was measured:
[1] = target: T1, EGFR (T790M/L858R) (Homo sapiens, UniProt P00533, L858R/T790M); experiment: EGFR L858R/T790M enzyme inhibition assay (HTRF); format: biochemical; conditions: 5 μM ATP, 60 min, read-out: EGFR_L858R T790M_IC50_nM
T1 construct: GST; purchased Proqinase
Procedure: Example 2: EGFR L858R & Del19/T790M Assay Protocol (to Find the IC50 for the Compounds Using HTRF Method)
Reagents for Enzyme Assay:
• 1. Enzyme Assay Buffer: 60 mM HEPES (pH 7.4), 50 mM NaCl, 20 mM MgCl2, 5 mM MnCl2, filtered using 0.2 μm pore size, stored at 4° C. • Supplements (added fresh to the enzyme buffer): 1M DTT stock was made, 5% BSA stock and 0.1M Na3OV4 stored at 4° C. Enzyme assay buffer 50 mL, 1 M DTT 100 μL, 5% BSA 500 μL, 0.1 M Na3OV4 50 μL. • 2. GST-hEGFR (L858R), active: EGFR (T790M/L858R), active (Proqinase), 3.6 μM stock; 2.5 nM in final assay. • 3. Gastrin Precusor-Biotinylated: Gastrin precursor (Tyr87) biotinylated peptide, EEAY*GWM, Cell Signaling Tech 1310, Lot-7, Want final 0.5 μM in assay. • 4. ATP: 10 mM stock in 100 μL Enzyme assay buffer pH 7.4 prepared freshly, want 5 μM in final assay. • 5. Test compounds: Powders were dissolved in 100% DMSO and made up to a final stock concentration of 10 mM (volume in μL to add for 10 mM=mg powder X 10^5/MW). Final compound concentration in the assay plate started at 10 μM.
• 1. HTRF buffer: 50 mM Tris —HCl, pH-7.5, 100 mM NaCl, 0.1% BSA, 0.05% Tween20, 0.5 mM EDTA, filtered using 0.2 μm pore size, stored at 4° C. • Phycolink® Streptavidin-Allophycocyanin (SA-APC) Prozyme, Cat. #PJ25S, Lot #896 085, 2.06 mg/mL, APC concentration is 11.6 μM, streptavidin concentration is 15.5 μM. Want 12 nM final in assay (based on streptavidin concentration). • 2. (Europium) Eu-W1024 Anti-phosphotyrosine (PT-66) Antibody: Perkin Elmer (Product Number: AD0068), monoclonal IgG1 that recognizes phosphotyrosine peptide 100 μg/ml stock. Want 0.1 nM final in assay.
• 1. The compound dilution was made by TECAN as per the above scheme. • 2. 16 μL of diluted compound was added to the assay plate by using TECAN. • 3. 10 μL of enzyme mix was added to each well except mins. • 4. 20 μL of substrate and ATP mix were added into each well of the assay plate, manually. • 5. The plate was incubated on a laboratory shaker at room temperature for 60 min. • 6. Meanwhile, the HTRF mix was prepared and 75 μL was added to the HTRF plate. • 7. When the incubation was over, 10 μL of the reaction mixture was transferred to the HTRF assay plate and incubated on a laboratory shaker for 30 min at room temperature. • 8. The reading was taken in Pherastar (ext 337 nm, Em 665 & 620 nm). • 9. The results were analyzed using Graphpad prism after calculation of the z factor, signal window and % inhibition to get the IC50.

[2] = tested on: H1975 cells (L858R_T790M mutant); experiment: H1975 proliferation assay; format: cell-based; conditions: Homo sapiens, NCI-H1975; read-out: Proliferation_Assay H1975 cells-EC50_nM L858R_T790M_mutant
[3] = tested on: A431 cells; experiment: Cellular proliferation (Alamar Blue) assay, A431; format: cell-based; conditions: Homo sapiens, A-431; A431 cells, 72 hr, Alamar Blue; read-out: A431 IC50
Method in brief: (§1)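 Seventy-two-hour growth assay with 3-fold compound titration (final 10–0.0005 μM) and Alamar Blue fluorescence end point, ex 540/em 590 nm.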

[4] = target: EGFR (A767_dupASV) expressing Ba/F3 stable cell line (Homo sapiens, UniProt P00533, DUP767-769, cells depend on it); experiment: Cellular proliferation (Alamar Blue) assay, EGFR A767_dupASV Ba/F3; format: cell-based; conditions: EGFR A767_dupASV Ba/F3, 72 hr, read-out: A767 IC50
Chain of EGFR (A767_dupASV) expressing Ba/F3 stable cell line (P00533 with tags, fused parts or gaps DUP767-769): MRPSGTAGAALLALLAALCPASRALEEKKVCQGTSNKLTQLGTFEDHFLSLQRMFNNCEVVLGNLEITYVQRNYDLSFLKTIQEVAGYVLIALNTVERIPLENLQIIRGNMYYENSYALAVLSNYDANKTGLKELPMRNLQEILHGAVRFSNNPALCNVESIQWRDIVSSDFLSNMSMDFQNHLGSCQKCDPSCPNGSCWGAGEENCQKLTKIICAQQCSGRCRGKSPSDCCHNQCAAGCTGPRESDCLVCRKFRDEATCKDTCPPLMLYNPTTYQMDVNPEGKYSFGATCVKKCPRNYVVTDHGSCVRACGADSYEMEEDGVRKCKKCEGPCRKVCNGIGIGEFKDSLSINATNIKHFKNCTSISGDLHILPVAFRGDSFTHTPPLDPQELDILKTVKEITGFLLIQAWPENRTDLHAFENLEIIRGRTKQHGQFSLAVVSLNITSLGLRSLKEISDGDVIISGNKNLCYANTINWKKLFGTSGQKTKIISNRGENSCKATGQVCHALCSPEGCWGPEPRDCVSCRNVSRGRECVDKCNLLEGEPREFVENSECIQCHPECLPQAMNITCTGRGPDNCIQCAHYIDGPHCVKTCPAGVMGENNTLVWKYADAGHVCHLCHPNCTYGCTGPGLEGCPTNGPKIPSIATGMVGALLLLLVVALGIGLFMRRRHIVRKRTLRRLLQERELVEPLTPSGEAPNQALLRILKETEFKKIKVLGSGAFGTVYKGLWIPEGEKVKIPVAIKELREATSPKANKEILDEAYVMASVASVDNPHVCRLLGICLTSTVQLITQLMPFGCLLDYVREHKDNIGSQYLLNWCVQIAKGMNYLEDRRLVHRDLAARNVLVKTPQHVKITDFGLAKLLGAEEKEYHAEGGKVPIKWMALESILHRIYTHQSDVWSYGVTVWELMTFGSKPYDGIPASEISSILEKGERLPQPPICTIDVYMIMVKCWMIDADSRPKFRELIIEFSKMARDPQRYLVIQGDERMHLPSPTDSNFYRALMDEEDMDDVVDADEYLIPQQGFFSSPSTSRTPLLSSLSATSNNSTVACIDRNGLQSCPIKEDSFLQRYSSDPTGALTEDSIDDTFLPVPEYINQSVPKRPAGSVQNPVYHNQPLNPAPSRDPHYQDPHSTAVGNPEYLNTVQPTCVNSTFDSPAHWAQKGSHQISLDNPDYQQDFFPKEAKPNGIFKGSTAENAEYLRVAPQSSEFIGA
Method in brief: as §1

[5] = target: EGFR(D770_N771insSVD) expressing Ba/F3 stable cell line (Homo sapiens, UniProt P00533, DUP768-770, cells depend on it); experiment: Cellular proliferation (Alamar Blue) assay, EGFR D770_N771insSVD Ba/F3; format: cell-based; conditions: EGFR D770_N771insSVD Ba/F3, 72 hr, read-out: D770 IC50
Chain of EGFR(D770_N771insSVD) expressing Ba/F3 stable cell line (P00533 with tags, fused parts or gaps DUP768-770): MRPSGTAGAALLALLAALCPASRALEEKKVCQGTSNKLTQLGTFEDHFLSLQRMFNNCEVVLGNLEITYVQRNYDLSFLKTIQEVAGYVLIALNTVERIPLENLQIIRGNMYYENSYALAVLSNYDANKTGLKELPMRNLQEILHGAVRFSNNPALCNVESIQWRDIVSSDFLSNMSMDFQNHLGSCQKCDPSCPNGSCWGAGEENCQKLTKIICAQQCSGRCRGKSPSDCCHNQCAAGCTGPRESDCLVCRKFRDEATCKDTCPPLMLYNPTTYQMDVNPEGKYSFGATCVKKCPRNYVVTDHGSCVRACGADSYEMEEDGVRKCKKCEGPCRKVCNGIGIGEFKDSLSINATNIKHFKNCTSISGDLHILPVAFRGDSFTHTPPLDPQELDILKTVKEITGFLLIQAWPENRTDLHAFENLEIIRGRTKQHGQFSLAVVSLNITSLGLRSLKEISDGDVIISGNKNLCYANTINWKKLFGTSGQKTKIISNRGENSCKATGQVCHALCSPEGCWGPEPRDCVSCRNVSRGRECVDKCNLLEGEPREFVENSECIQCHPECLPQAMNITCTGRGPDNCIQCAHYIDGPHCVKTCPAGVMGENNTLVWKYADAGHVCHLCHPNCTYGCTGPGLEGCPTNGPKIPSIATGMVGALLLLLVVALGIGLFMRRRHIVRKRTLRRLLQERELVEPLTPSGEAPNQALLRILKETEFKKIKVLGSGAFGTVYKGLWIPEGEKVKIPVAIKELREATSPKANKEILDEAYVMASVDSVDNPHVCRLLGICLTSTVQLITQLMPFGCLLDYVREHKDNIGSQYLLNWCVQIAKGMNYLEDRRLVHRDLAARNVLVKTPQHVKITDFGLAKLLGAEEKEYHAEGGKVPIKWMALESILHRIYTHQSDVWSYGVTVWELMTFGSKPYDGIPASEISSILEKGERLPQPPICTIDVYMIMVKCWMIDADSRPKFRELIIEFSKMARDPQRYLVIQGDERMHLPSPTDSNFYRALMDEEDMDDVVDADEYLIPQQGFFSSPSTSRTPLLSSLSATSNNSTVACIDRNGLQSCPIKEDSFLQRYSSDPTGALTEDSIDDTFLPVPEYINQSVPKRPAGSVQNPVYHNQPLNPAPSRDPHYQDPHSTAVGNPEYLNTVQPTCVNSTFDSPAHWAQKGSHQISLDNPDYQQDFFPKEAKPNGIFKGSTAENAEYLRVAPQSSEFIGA
Method in brief: as §1

T1 sequence (P00533 25-1210 T790M/L858R): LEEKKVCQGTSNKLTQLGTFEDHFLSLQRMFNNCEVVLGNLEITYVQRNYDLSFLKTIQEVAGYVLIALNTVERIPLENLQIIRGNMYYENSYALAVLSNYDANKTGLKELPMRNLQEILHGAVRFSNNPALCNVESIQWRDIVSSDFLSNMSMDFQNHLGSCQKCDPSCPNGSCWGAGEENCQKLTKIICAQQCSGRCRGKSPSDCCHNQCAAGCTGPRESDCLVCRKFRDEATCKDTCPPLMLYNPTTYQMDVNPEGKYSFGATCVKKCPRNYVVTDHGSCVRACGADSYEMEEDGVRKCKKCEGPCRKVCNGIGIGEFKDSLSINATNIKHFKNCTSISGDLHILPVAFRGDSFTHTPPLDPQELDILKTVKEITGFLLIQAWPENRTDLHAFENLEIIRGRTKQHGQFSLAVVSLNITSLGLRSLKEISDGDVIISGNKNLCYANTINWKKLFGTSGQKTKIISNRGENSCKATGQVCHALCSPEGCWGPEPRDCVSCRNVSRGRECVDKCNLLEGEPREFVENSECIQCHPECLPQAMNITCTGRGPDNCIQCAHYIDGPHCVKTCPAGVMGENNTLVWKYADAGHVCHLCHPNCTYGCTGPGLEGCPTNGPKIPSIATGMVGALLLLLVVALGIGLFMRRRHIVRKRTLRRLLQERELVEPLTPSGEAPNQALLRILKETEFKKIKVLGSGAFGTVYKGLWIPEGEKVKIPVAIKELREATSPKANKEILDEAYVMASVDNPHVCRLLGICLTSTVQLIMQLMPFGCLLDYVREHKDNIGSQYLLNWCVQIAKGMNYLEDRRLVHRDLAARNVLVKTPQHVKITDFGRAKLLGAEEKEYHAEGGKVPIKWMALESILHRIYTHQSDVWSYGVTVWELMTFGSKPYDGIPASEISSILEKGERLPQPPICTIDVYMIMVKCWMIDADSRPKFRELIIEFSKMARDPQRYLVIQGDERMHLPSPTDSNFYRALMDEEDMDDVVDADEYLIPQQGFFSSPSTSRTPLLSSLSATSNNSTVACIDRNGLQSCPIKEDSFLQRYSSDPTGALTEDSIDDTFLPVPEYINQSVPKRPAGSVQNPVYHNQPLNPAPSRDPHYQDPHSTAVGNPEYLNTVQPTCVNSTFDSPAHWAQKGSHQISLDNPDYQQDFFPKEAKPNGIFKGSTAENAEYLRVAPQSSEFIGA

| IC50 [1] | EC50 [2] | IC50 [3] | GI50 [4] | GI50 [5] | Compound |
| --- | --- | --- | --- | --- | --- |
| 167 nM | 372 nM | ≥ 10000 nM | ≥ 10000 nM | ≥ 10000 nM | C=CC(=O)N1CCC(N2C(=O)N(Cc3ccccc3)Cc3cnc(Nc4cn(C)nc4Cl)nc32)C1 (racemic) [Compound 37, 1-(1-acryloylpyrrolidin-3-yl)-3-benzyl-7-((3-chloro-1-methyl-1H-pyrazol-4-yl)amino)-3,4-dihydropyrimido[4,5-d]pyrimidin-2(1H)-one] |
| 112 nM | 637 nM | ≥ 10000 nM | ≥ 10000 nM | 9350 nM | C=CC(=O)N1CC[C@H](N2C(=O)N(Cc3ccccc3)Cc3cnc(Nc4cn(C)nc4Cl)nc32)C1 (single isomer, unassigned) [Compound 39] |
| 2 nM | 19.7 nM | 615 nM | 414 nM | 893 nM | CN(C)C/C=C/C(=O)Nc1cccc(N2C(=O)N(Cc3ccc(F)cc3)Cc3cnc(Nc4cnn(C)c4)nc32)c1 [Compound 2, (E)-4-(dimethylamino)-N-(3-(3-(4-fluorobenzyl)-7-((1-methyl-1H-pyrazol-4-yl)amino)-2-oxo-3,4-dihydropyrimido[4,5-d]pyrimidin-1(2H)-yl)phenyl)but-2-enamide] |
| 13 nM | 40.9 nM | 676 nM | 184 nM | 131 nM | C=CC(=O)Nc1cccc(N2C(=O)N(Cc3ccc(F)cc3)Cc3cnc(Nc4cnn(C)c4)nc32)c1 [Compound 3, N-(3-(3-(4-fluorobenzyl)-7-((1-methyl-1H-pyrazol-4-yl)amino)-2-oxo-3,4-dihydropyrimido[4,5-d]pyrimidin-1(2H)-yl)phenyl)acrylamide] |
| 2 nM | 9.6 nM | 1710 nM | 1150 nM | 2430 nM | Cc1c(Nc2ncc3c(n2)N(c2cccc(NC(=O)/C=C/CN(C)C)c2)C(=O)N(Cc2ccccc2)C3)cnn1C [Compound 11, (E)-N-(3-(3-benzyl-7-((1,5-dimethyl-1H-pyrazol-4-yl)amino)-2-oxo-3,4-dihydropyrimido[4,5-d]pyrimidin-1(2H)-yl)phenyl)-4-(dimethylamino)but-2-enamide] |
| 3 nM | 6.6 nM | 1240 nM | 106 nM | 134 nM | CN(C)C/C=C/C(=O)Nc1cccc(N2C(=O)N(Cc3ccccc3)Cc3cnc(Nc4cnn(CC(F)(F)F)c4)nc32)c1 [Compound 12, (E)-N-(3-(3-benzyl-2-oxo-7-((1-(2,2,2-trifluoroethyl)-1H-pyrazol-4-yl)amino)-3,4-dihydropyrimido[4,5-d]pyrimidin-1(2H)-yl)phenyl)-4-(dimethylamino)but-2-enamide] |
| 1 nM | 15.7 nM | 371 nM | 1170 nM | 2310 nM | COCCn1cc(Nc2ncc3c(n2)N(c2cccc(NC(=O)/C=C/CN(C)C)c2)C(=O)N(Cc2ccccc2)C3)cn1 [Compound 16, (E)-N-(3-(3-benzyl-7-((1-(2-methoxyethyl)-1H-pyrazol-4-yl)amino)-2-oxo-3,4-dihydropyrimido[4,5-d]pyrimidin-1(2H)-yl)phenyl)-4-(dimethylamino)but-2-enamide] |

Further lines, the molecule ahead of its results:

| Compound | IC50 [1] | EC50 [2] | IC50 [3] | GI50 [4] | GI50 [5] |
| --- | --- | --- | --- | --- | --- |
| CC(c1ccccc1)N1Cc2cnc(Nc3cnn(C)c3)nc2N(c2cccc(NC(=O)/C=C/CN(C)C)c2)C1=O (racemic) [Compound 10, (E)-4-(dimethylamino)-N-(3-(7-((1-methyl-1H-pyrazol-4-yl)amino)-2-oxo-3-(1-phenylethyl)-3,4-dihydropyrimido[4,5-d]pyrimidin-1(2H)-yl)phenyl)but-2-enamide] | 4 nM | 4.5 nM | 638 nM | 105 nM | 108 nM |
| C=CC(=O)Nc1cccc(N2C(=O)N(Cc3ccccc3)Cc3cnc(Nc4cnn(C)c4C)nc32)c1 [Compound 4, N-(3-(3-benzyl-7-((1,5-dimethyl-1H-pyrazol-4-yl)amino)-2-oxo-3,4-dihydropyrimido[4,5-d]pyrimidin-1(2H)-yl)phenyl)acrylamide] | 2.4 nM | 4.9 nM | 78 nM | 57 nM | 40 nM |
| Cc1nn(CC(F)(F)F)cc1Nc1ncc2c(n1)N(c1cccc(NC(=O)/C=C/CN(C)C)c1)C(=O)N(Cc1ccccc1)C2 [Compound 8, (E)-N-(3-(3-benzyl-7-((3-methyl-1-(2,2,2-trifluoroethyl)-1H-pyrazol-4-yl)amino)-2-oxo-3,4-dihydropyrimido[4,5-d]pyrimidin-1(2H)-yl)phenyl)-4-(dimethylamino)but-2-enamide] | 9 nM | 9.2 nM | 580 nM | 103 nM | 108 nM |
| C=CC(=O)Nc1cccc(N2C(=O)N(Cc3ccccc3)Cc3cnc(Nc4cnn(CCO)c4)nc32)c1 [Compound 13, N-(3-(3-benzyl-7-((1-(2-hydroxyethyl)-1H-pyrazol-4-yl)amino)-2-oxo-3,4-dihydropyrimido[4,5-d]pyrimidin-1(2H)-yl)phenyl)acrylamide] | 1 nM | 1.5 nM | 59 nM | 45 nM | 42 nM |
| CN(C)C/C=C/C(=O)Nc1cccc(N2C(=O)N(Cc3ccccc3)Cc3cnc(Nc4cnn(CCO)c4)nc32)c1 [Compound 14, (E)-N-(3-(3-benzyl-7-((1-(2-hydroxyethyl)-1H-pyrazol-4-yl)amino)-2-oxo-3,4-dihydropyrimido[4,5-d]pyrimidin-1(2H)-yl)phenyl)-4-(dimethylamino)but-2-enamide] | 5 nM | 37.8 nM | 6080 nM | 2570 nM | 2920 nM |
| CN(C)C/C=C/C(=O)Nc1cccc(N2C(=O)N(c3ccc(F)cc3)Cc3cnc(Nc4cnn(C)c4)nc32)c1 [Compound 18, (E)-4-(dimethylamino)-N-(3-(3-(4-fluorophenyl)-7-((1-methyl-1H-pyrazol-4-yl)amino)-2-oxo-3,4-dihydropyrimido[4,5-d]pyrimidin-1(2H)-yl)phenyl)but-2-enamide] | 2.5 nM | 34 nM | 332 nM | 421 nM | 1100 nM |
| CN(C)C/C=C/C(=O)N(C)c1cccc(N2C(=O)N(Cc3ccccc3)Cc3cnc(Nc4cnn(C)c4)nc32)c1 [Compound 21, (E)-N-(3-(3-benzyl-7-((1-methyl-1H-pyrazol-4-yl)amino)-2-oxo-3,4-dihydropyrimido[4,5-d]pyrimidin-1(2H)-yl)phenyl)-4-(dimethylamino)-N-methylbut-2-enamide] | 45 nM | 83.9 nM | 2080 nM | 2810 nM | 3350 nM |
| Cc1cc(Nc2ncc3c(n2)N(c2cccc(NC(=O)/C=C/CN(C)C)c2)C(=O)N(Cc2ccccc2)C3)sn1 [Compound 22, (E)-N-(3-(3-benzyl-7-((3-methylisothiazol-5-yl)amino)-2-oxo-3,4-dihydropyrimido[4,5-d]pyrimidin-1(2H)-yl)phenyl)-4-(dimethylamino)but-2-enamide] | 7 nM | 10 nM | 46 nM | 121 nM | 278 nM |
